The values that follow come from patent US20050100595A1, “Methods for micronization of hydrophobic drugs” (Brown University Research Foundation, priority 2001, published 2005).

Each structure is given as a SMILES string.

The nature of series [1]: Coulter particle size analysis (laser-light diffractometry, volume statistics). It counts as physicochemical. As to the method: A 250 μg/mL suspension of microspheres in 1% pluronic F127 [poly(ethylene oxide)-b-poly(propylene oxide)-b-poly(ethylene oxide)]/1% hydroxypropylmethylcellulose (HPMC) was introduced into the small volume fluid module. Only the Coulter output based on volume measurements was used for analysis.

Series [2] is described as follows: Dicumarol loading by NaOH extraction. Type of series: physicochemical. As to conditions: dicumarol content by NaOH extraction. As to the method:
100 mg p(FA:SA) 17:83 was dissolved in this solution by sonicating for an additional 30 s. The resultant solution was dispersed into 1.0 L petroleum ether and the precipitate was collected using a 100 nm filter composed of mixed-cellulose esters. The microsphere formulation was then frozen and lyophilized for 24 hours. The dicumarol loading was determined in this formulation by a simple extraction protocol. Microspheres were incubated overnight in 2.5 N NaOH at 37° C. Upon dissolution, an aliquot of approximately 15 μg based on theoretical loading was added to 2.5 N NaOH to make a total volume of 800 μL. This mixture was agitated for 2 minutes and centrifuged for 2 minutes at 11,269 g.
The dicumarol loading was determined in all formulations by a simple extraction protocol. Microspheres were incubated overnight in 2.5 N NaOH at 37° C. Upon dissolution, an aliquot of approximately 15 μg based on theoretical loading was added to 2.5 N NaOH to make a total volume of 800 μL. This mixture was agitated for 2 minutes and centrifuged for 2 minutes at 11,269 g.

Series [3] in a line: Scanning electron microscopy of dicumarol formulations. Type of series: physicochemical. As to the method: Scanning Electron Microscopy: All samples were sputter-coated with an Au—Pd target for 3.5 minutes and spread out on a carbon-backed adhesive disc on top of the SEM stub. The Hitachi 2700 was used to visualize the samples at an accelerating voltage of 8 kV.
Series [4] is described as follows: in vivo. As to conditions: rat, 25 mg/kg. The text has this: Rats were anesthetized using isoflurane gas.
Non-compartmental pharmacokinetics were assumed.

Turning to `O=c1oc2ccccc2c(O)c1Cc1c(O)c2ccccc2oc1=O` [Stock, Dicumarol], the mean particle diameter in series [1] (based on volume statistics) came to 18.5 μm. Besides, in series [1] (volume calculations, 25% of population less than this size), the “Coulter Particle Analysis 25% <” value is 12.98 μm. Besides, the “Coulter Particle Analysis 50% <” value in series [1] (volume calculations, 50% of population less than this size) was 18.95 μm. The “Coulter Particle Analysis 75% <” value in series [1] (volume calculations, 75% of population less than this size) was 24.82 μm. The “Loading (drug loading)” value in series [2] is listed as 100%. In addition, the “particle size seen in SEM micrographs” value in series [3] (FIG. 1) was 10-20 microns. In series [3] (FIG. 7A), the “particle size seen in SEM micrographs” value is on record as “approximately 25 μm”. The bioavailability in series [4] (male, Sprague-Dawley) stood at 90.1 ± 7.3%. In series [4] (male, Sprague-Dawley, po), the Cmax came out at 73 ± 6 µg/mL, the Tmax worked out at 14 ± 2 h, the “plasma concentration reached (peak of plasma curve)” value came out at 64 µg/mL and the “time after which the peak of the plasma curve was reached” value turned out to be 3 h. The compound further had an AUC in series [4] (po) of 2666 ± 206 µg·h/mL.

As usually defined, the bioavailability is dose-corrected exposure relative to a reference, in per cent. Lower therefore signals little systemic uptake. As usually defined, the Cmax is the peak of the concentration-time curve. For orientation: Tmax means the time from dosing to the highest level. By AUC is commonly meant the area under the concentration-time curve, a measure of exposure. A low value points to less exposure.
